Data taken from patent publication US20190038597A1, “PREVENTION OF VASCULAR AND CARDIAC FIBROSIS VIA IRE1ALPHA INHIBITION” (McMaster University, priority 2017, published 2019).

Legend:
[1] = system: SHR/L-NAME model of hypertension; experiment: Vascular stiffness by wire myograph in L-NAME-treated SHRs; assay type: in vivo, rat; conditions: L-NAME+4μ8c group, 18 days, maximally relaxed vessels
Description: 12-14 week old male SHRs were randomized to receive vehicle, L-NAME (50 mg/L) or L-NAME and 4μ8c (2.5 mg/kg/day i.p.) for 18 days. Aortas and carotid arteries were removed at sacrifice for mechanical and structural analysis. (A) Picro-Sirius Red staining of aorta and carotid artery sections (B) Determination of soluble collagen content in aorta and carotid arteries by Picro-Sirius Red-based assay. Stress-strain curves (C,E), elastic modulus-stress lines (D,F) and the slope of the elastic modulus-stress lines (G,H) were calculated. Data is presented as mean±SEM. *, p<0.05 vs. NT; #, p<0.05 vs. L-NAME. N≥4 per group; 2-5 segments of the thoracic aorta were analyzed per animal. […]
Vessels were mounted on a steel wire myograph and incubated in Ca^2±-free Hank's Basic Salt Solution containing 100 μM sodium nitroprusside to ensure maximum relaxation. […] Images of the vessels at each incremental tension were captured and lumen diameters were measured with ImageJ software. Circumferential stress (a) was calculated as F/tl, where F is the tension in the vessel wall, t is the radial thickness of the vessel wall and 1 is the axial length of the aortic ring. Circumferential strain (c) was calculated as (D−D0)/D0 where D is the lumen diameter at a given tension and D0 is the initial diameter under maximally relaxed conditions. […]

IRE1α endonuclease = target: T1, IRE1α endonuclease (Rattus norvegicus, UniProt A0A4Y1YQ52); experiment: XBP1 splicing assay in VSMCs; assay type: cell-based
T1 construct: endogenous in cells; host or cells: primary aortic vascular smooth muscle cells from 5-week old WKY rats
Description: VSMCs were treated with tunicamycin (1 μg/ml) and either 4μ8c (30 μM) or STF-083010 (60 μM) for 6 h or 24 h. (A) Agarose gel for assessment of XBP1 splicing after 6 h of treatment with tunicamycin and densitometric quantification. (B) Western blot for assessment of ER chaperone expression after 24 h tunicamycin treatment with or without inhibition of IRE1α by 4μ8c. Data is presented as mean±SEM. *, p<0.05 vs. Vehicle; #, p<0.05 vs. Tm.
VSMCs were cultured in DMEM/F12 containing 1% FBS. Confluent cells were treated with L-ascorbic acid-2-phosphate (100 μg/ml) and either TGF-β1 (5 ng/ml) or Ang II (1 μM). (A) Agarose gel for assessment of TGF-β1-induced XBP1 splicing in VSMCs after 24 h. (B) Picro-Sirius Red assay for measurement of collagen deposition induced by combined TGF-β1 and AA2P treatment after 72 h, and inhibition by 4μ8c and STF-083010. (C) Western blot for assessment of collagen chaperone expression after treatment of TGF-β1 and 4μ8c for 48 h. *, p<0.05. (D) Measurement of Ang II-induced collagen production and inhibition by 4μ8c and STF-083010 after 72 h.
VSMCs were isolated from the aortas of 5-week old WKY rats using the explant method^29. The thoracic aorta was removed from the animal and placed in ice-cold 5× Antibiotics-Antimycotics solution (ThermoFisher). The adventitia was gently removed and the aorta was cut longitudinally. The endothelial layer was removed by gentle scraping with forceps. […]
Total RNA was extracted from cultured cells and rat tissues using the TRIzol reagent (ThermoFisher) according to manufacturer's instructions. RNA concentration and purity were measured using a Nanodrop ND-1000 spectrophotometer (NanoDrop Technologies, Inc.). […]
Aortic VSMCs were isolated from normotensive WKY rats and used for in vitro experiments. […] To test the ability of these compounds to block the IRE1α endonuclease, XBP1 splicing was measured in VSMCs treated with the ER stress inducer tunicamycin for 6 h with or without pre-treatment by 4μ8c or STF-083010. […]

T1 sequence (A0A4Y1YQ52 21-977): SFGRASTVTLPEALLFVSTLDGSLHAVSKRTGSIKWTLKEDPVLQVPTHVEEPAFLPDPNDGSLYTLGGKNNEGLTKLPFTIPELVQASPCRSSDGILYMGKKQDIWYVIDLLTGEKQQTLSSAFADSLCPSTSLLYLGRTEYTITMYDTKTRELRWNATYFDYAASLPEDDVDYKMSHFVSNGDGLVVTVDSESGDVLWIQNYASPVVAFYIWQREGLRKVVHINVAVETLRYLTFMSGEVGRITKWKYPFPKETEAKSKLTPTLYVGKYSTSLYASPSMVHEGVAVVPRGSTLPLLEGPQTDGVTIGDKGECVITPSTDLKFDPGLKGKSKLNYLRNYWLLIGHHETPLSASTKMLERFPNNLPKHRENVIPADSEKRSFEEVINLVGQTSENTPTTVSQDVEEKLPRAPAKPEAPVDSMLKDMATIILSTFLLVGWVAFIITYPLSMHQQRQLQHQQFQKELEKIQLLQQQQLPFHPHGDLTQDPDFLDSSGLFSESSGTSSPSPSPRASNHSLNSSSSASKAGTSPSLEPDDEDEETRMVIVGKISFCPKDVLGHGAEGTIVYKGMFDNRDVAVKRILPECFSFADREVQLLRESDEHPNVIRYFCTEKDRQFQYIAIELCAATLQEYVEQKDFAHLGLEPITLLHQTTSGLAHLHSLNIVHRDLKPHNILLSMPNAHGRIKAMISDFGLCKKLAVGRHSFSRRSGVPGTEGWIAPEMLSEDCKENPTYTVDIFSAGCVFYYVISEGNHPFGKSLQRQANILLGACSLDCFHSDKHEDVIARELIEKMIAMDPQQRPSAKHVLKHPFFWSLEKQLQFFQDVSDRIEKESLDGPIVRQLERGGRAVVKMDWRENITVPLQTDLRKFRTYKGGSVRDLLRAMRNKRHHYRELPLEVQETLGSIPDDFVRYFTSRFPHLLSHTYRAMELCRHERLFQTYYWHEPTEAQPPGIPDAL

Cc1cc(=O)oc2c(C=O)c(O)ccc12 [4μ8c, 7-Hydroxy-4-methyl-2-oxo-2H-chromene-8-carbaldehyde]
slope of the elastic modulus-stress line, carotid artery [1]: 14.42±0.59
slope of the incremental elastic modulus versus stress line, aorta [1]: 3.970±0.129
TGF-β1 induced XBP1 splicing (IRE1α endonuclease; TGF-β1 (5 ng/ml) 24 h, co-treatment, FIG. 2A): blocked
spliced-to-unspliced XBP1 ratio (IRE1α endonuclease; tunicamycin (1 μg/ml) 6 h, 4μ8c 30 μM or STF-083010 60 μM, FIG. 1A): reduced
